Measurements from patent US12435060B2, “Acylamino bridged heterocyclic compound, and composition and application thereof” (BEIJING SCITECH-MQ PHARMACEUTICALS LIMITED, priority 2019, dated 2025).

What follows are compounds tested on HT29 cells (assay: Inhibition of cell necrosis (CCK8 method), induced programmed necrosis of HT29 cells). Settings: Homo sapiens, HT-29; rescue from necrosis induced by TNF-α 20 ng/mL, AT-406 1 μM, Z-VAD-FMK 20 μM; 16-20 hours; CCK-8, OD 450 nm.
Type: cell-based
Procedure, shortened: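 Rescue from programmed necrosis was scored by CCK-8 absorbance at 450 nm after 16-20 h of TNF-α (20 ng/mL), AT-406 (1 μM) and Z-VAD-FMK (20 μM) at 37 °C, 5% CO2. HT29 cells had received compound 30 min earlier across nine 4-fold dilutions (top 25000 nM final). IC50 came from % inhibition relative to uninduced and induced-only wells.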

SMILES	IC50
CC(C)(O)CCCOc1ccc(Cl)c(-c2ccnc(NC(=O)c3nnc(Cc4cc(F)cc(Cl)c4)[nH]3)c2)c1 [Example 341, N-(4-(2-chloro-5-((4-hydroxy-4-methylpentyl)oxy)phenyl)pyridin-2-yl)-5-(3-chloro-5-fluorobenzyl)-4H-1,2,4-triazole-3-carboxamide]	100 to 1000 nM
Cc1ccc(OCC(C)(C)O)cc1-c1ccnc(NC(=O)c2nnc(Cc3ccccc3)[nH]2)c1 [Example 117, 5-benzyl-N-(4-(5-(2-hydroxyl-2-methylpropoxy)-2-methylphenyl)pyridin-2-yl)-4H-1,2,4-triazole-3-carboxamide]	≤ 100 nM
Cc1ccc(OCCCC(C)(C)O)cc1-c1ccnc(NC(=O)c2nnc(CC3CCOCC3)[nH]2)c1 [Example 177, N-(4-(5-((4-hydroxy-4-methylpentyl)oxy)-2-methylphenyl)pyridin-2-yl)-5-((tetrahydro-2H-pyran-4-yl)methyl)-4H-1,2,4-triazole-3-carboxamide]	≤ 100 nM
Cc1ccc(OCCCC(C)(C)O)cc1-c1ccnc(NC(=O)c2nnc(Cc3ccccc3F)[nH]2)c1 [Example 183, 5-(2-fluorobenzyl)-N-(4-(5-((4-hydroxy-4-methylpentyl)oxy)-2-methylphenyl)pyridin-2-yl)-4H-1,2,4-triazole-3-carboxamide]	≤ 100 nM
CCOCCOc1ccc(C(F)(F)F)c(-c2ccnc(NC(=O)c3nnc(CC4CCCCC4)[nH]3)c2)c1 [Example 286, 5-(cyclohexylmethyl)-N-(4-(5-(2-ethoxyethoxy)-2-(trifluoromethyl)phenyl)pyridin-2-yl)-4H-1,2,4-triazole-3-carboxamide]	≤ 100 nM
O=C(Nc1cc(-c2cccc3c2CCCC3)ccn1)c1nnc(Cc2ccccc2)[nH]1 [Example 43, 5-benzyl-N-(4-(5,6,7,8-tetrahydronaphthalen-1-yl)pyridin-2-yl)-4H-1,2,4-triazole-3-carboxamide]	1000 to 10000 nM
C=Cc1ccc(OCCOC(C)(C)C)cc1-c1ccnc(NC(=O)c2nnc(Cc3ccccc3)[nH]2)c1 [Example 78, 5-benzyl-N-(4-(5-(2-(tert-butoxy)ethoxy)-2-vinylphenyl)pyridin-2-yl)-4H-1,2,4-triazole-3-carboxamide]	≤ 100 nM
CCC(O)(CC)CCCOc1ccc(C(F)(F)F)c(-c2ccnc(NC(=O)c3nnc(CC4CCCCC4)[nH]3)c2)c1 [Example 263, 5-(cyclohexylmethyl)-N-(4-(5-((4-ethyl-4-hydroxyhexyl)oxy)-2-(trifluoromethyl)phenyl)pyridin-2-yl)-4H-1,2,4-triazole-3-carboxamide]	≤ 100 nM
CCOc1ncccc1-c1ccnc(NC(=O)c2nnc(Cc3ccccc3)[nH]2)c1 [Example 22, 5-benzyl-N-(2-ethoxy-[3,4′-bipyridin]-2′-yl)-4H-1,2,4-triazole-3-carboxamide]	1000 to 10000 nM
O=C(Nc1cc(-c2ccccc2)ccn1)c1nnc(Cc2ccccc2)[nH]1 [Example 1, 5-benzyl-N-(4-phenylpyridin-2-yl)-4H-1,2,4-triazole-3-carboxamide]	1000 to 10000 nM
Cc1ccc(OCCOCC(C)C)cc1-c1ccnc(NC(=O)c2nnc(Cc3ccccc3)[nH]2)c1 [Example 70, 5-benzyl-N-(4-(5-(2-isobutoxyethoxy)-2-methylphenyl)pyridin-2-yl)-4H-1,2,4-triazole-3-carboxamide]	≤ 100 nM
Cc1ccc(S(=O)(=O)CCCC(C)(C)O)cc1-c1ccnc(NC(=O)c2nnc(Cc3ccccc3)[nH]2)c1 [Example 474, 5-benzyl-N-(4-(5-((4-hydroxy-4-methylpentyl)sulfonyl)-2-methylphenyl)pyridin-2-yl)-4H-1,2,4-triazole-3-carboxamide]	100 to 1000 nM
CC(C)(O)CCCCOc1ccc(F)c(-c2ccnc(NC(=O)c3nnc(Cc4ccccc4F)[nH]3)c2)c1 [Example 500, N-(4-(2-fluoro-5-((5-hydroxyl-5-methylhexyl)oxy)phenyl)pyridin-2-yl)-5-(2-fluorobenzyl)-4H-1,2,4-triazole-3-carboxamide]	100 to 1000 nM
O=C(Nc1cc(-c2cc(OCCCCO)ccc2Cl)ccn1)c1nnc(Cc2ccccc2)[nH]1 [Example 371, 5-benzyl-N-(4-(2-chloro-5-(4-hydroxybutoxy)phenyl)pyridin-2-yl)-4H-1,2,4-triazole-3-carboxamide]	≤ 100 nM
Cc1cc(C(C)(C)O)ccc1-c1ccnc(NC(=O)c2nnc(Cc3ccccc3)[nH]2)c1 [Example 161, 5-benzyl-N-(4-(4-(2-hydroxypropan-2-yl)-2-methylphenyl)pyridin-2-yl)-4H-1,2,4-triazole-3-carboxamide]	100 to 1000 nM
O=C(Nc1cc(-c2cc(OCCCCO)ccc2Cl)ccn1)c1nnc(CC2CCCC2)[nH]1 [Example 373, N-(4-(2-chloro-5-(4-hydroxybutoxy)phenyl)pyridin-2-yl)-5-(cyclopentylmethyl)-4H-1,2,4-triazole-3-carboxamide]	≤ 100 nM
O=C(Nc1cncc(-c2ccccc2Cl)c1)c1nnc(Cc2ccccc2)[nH]1 [Example 30, 5-benzyl-N-(5-(2-chlorophenyl)pyridin-3-yl)-4H-1,2,4-triazole-3-carboxamide]	> 10000 nM
CC(C)(O)CCCCOc1ccc(Cl)c(-c2cc(NC(=O)c3nnc(CC4CCCCC4)[nH]3)ncc2F)c1 [Example 502, N-(4-(2-chloro-5-((5-hydroxyl-5-methylhexyl)oxy)phenyl)-5-fluoropyridin-2-yl)-5-(cyclohexylmethyl)-4H-1,2,4-triazole-3-carboxamide]	≤ 100 nM
COCCCOc1ccc(C)c(-c2ccnc(NC(=O)c3nnc(Cc4ccccc4)[nH]3)c2)c1 [Example 141, 5-benzyl-N-(4-(5-(3-methoxypropoxy)-2-methylphenyl)pyridin-2-yl)-4H-1,2,4-triazole-3-carboxamide]	≤ 100 nM
CCC(O)(CC)CCCOc1ccc(Cl)c(-c2ccnc(NC(=O)c3nnc(Cc4ccccc4F)[nH]3)c2)c1 [Example 360, N-(4-(2-chloro-5-((4-ethyl-4-hydroxyhexyl)oxy)phenyl)pyridin-2-yl)-5-(2-fluorobenzyl)-4H-1,2,4-triazole-3-carboxamide]	≤ 100 nM
Cc1ccc(OCCC2CCOCC2)cc1-c1cc(NC(=O)c2nnc(CC3CCCCC3)[nH]2)ncc1F [Example 499, N-(5-fluoro-4-(2-methyl-5-(2-(tetrahydro-2H-pyran-4-yl)ethoxy)phenyl)pyridin-2-yl)-5-(cyclohexylmethyl)-4H-1,2,4-triazole-3-carboxamide]	≤ 100 nM
CC(C)(O)CCCOc1ccc(F)c(-c2cc(NC(=O)c3nnc(Cc4ccccc4F)[nH]3)ncc2Cl)c1 [Example 320, N-(5-chloro-4-(2-fluoro-5-((4-hydroxy-4-methylpentyl)oxy)phenyl)pyridin-2-yl)-5-(2-fluorobenzyl)-4H-1,2,4-triazole-3-carboxamide]	100 to 1000 nM
CC(C)(O)CCCCOc1ccc(F)c(-c2cc(NC(=O)c3nnc(CC4CCCCC4)[nH]3)ncc2Cl)c1 [Example 326, 5-(cyclohexylmethyl)-N-(5-chloro-4-(2-fluoro-5-((5-hydroxyl-5-methylhexyl)oxy)phenyl)pyridin-2-yl)-4H-1,2,4-triazole-3-carboxamide]	100 to 1000 nM
O=C(Nc1cc(-c2ccccc2OC(F)(F)F)ccn1)c1nnc(Cc2ccccc2)[nH]1 [Example 6, 5-benzyl-N-(4-(2-(trifluoromethoxy)phenyl)pyridin-2-yl)-4H-1,2,4-triazole-3-carboxamide]	1000 to 10000 nM
